In patent US9381260B2, “Hypoxia inducible factor-1 pathway inhibitors and uses as anticancer and imaging agents” (EMORY UNIVERSITY, priority 2011, dated 2016):
Values after ≈ are worked out from the molar mass of the structure shown. One block for each molecule: values may come before it.

Tests used:
[1] = log P7.4 by shake flask or HPLC method (OECD guidelines); format: physicochemical; details: pH 7.4
Method: Experimental determinations of log P7.4, aqueous solubility, and metabolic stability of a selected number of the heteroarylsulfonamides were performed to further characterize the compounds (Table 2 log P7.4 was measured by either the shake flask method (6a, 6g) or the HPLC method (1, 6b-6f, 6h-6l) according to OECD guidelines. Most compounds followed the trends predicted by in silico calculations, and the measured values were smaller than the predicted values by 1.0-1.5. When a methoxy group or hydroxyl group is placed at the C-8 position of the chromene ring instead of a hydrogen, as in 6g, 6h, and 6l, the log P7.4 value decreased by more than 2 from the predicted values to result in 1.2-1.3. The presence of a 2-methylpropan-2-yl group in region 2 conferred high log P7.4 values, and heteroarylsulfonyl groups in region 1 also affected log P7.4 values, as shown for 6c, 6i, 6j, and 6k.

HIF-1α = HIF-1α protein levels by Western blot in LN229-V6R cells under hypoxia; format: cell-based, human; details: 24 h; for effect on HIF-1α protein levels: 3-100 μM
Method: HIF-1 is a heterodimer of HIF-1α and HIF-1β subunits, which then associates with p300 or CBP cofactors to form an active transcriptional complex. […] To determine whether the heteroarylsulfonamides retain this property, we determined the levels of HIF-1α protein under hypoxia in LN229-V6R cells. […] We investigated if the levels of HIF-1α protein would correlate with transcriptional inhibition of the HRE reporter by the compounds. LN229-V6R cells were treated with the compounds at concentrations of 3, 6, 12, 25, 50, and 100 μM under hypoxia for 24 h, and then HIF-1α protein levels in the cell extracts were examined by Western blotting. […] 6g and 61 decreased HIF-1a levels in a dose-dependent fashion starting from 12 and 25 μM, respectively (FIG. 3). […] The reduction in HIF-1α levels afforded by all three compounds at 100 μM may reflect nonspecific cytotoxicity.

[2] = Aqueous solubility by HPLC-UV on filtered saturated suspensions; format: physicochemical; details: for aqueous solubility relative to 1: fold more soluble than compound 1; for aqueous solubility (n = 3) / solubility: HPLC-UV, saturated aqueous suspension, PTFE filter 0.2 μm; for solubility: water, thermodynamic from solid, read-out: aqueous solubility (n = 3)
Text: Aqueous solubilities of 1, 6a, 6d, and 6g were quantified by HPLC coupled with a UV detector on saturated aqueous suspensions after filtration with a polytetrafluoroethylene (PTFE) filter (pore size 0.2 μm). 6a and 6d were chosen due to their strong activity in the HRE-reporter assay, and 6g was picked to evaluate the influence of the methoxy group attached to the C-8 position of the chromene ring. Aqueous solubilities of 6a, 6d, and 6g are, respectively, 100, 20, and 9000 times better than that of 1, which are consistent with the log Sw predictions for 6a and 6d. The substitution of hydrogen with a methoxy group at the C-8 position of the chromene ring increased the aqueous solubility by 90 times (compare 6a and 6g).

[3] = tested on: HFF-1 immortalized human fibroblasts; assay: Clonogenicity assay HFF-1; format: cell-based; details: HFF-1, 336 h, 14 days
Text: (§1) To determine whether 6a, 6g, and 6l altered tumor cell growth in culture, we performed sulforhodamine B (SRB) assays in LN229-V6R glioma cells in 3 days, and to further examine the cell growth inhibitory activity of 6a, 6g, and 61 in an independent biological assay, we performed clonogenicity assays in LN229 human glioblastoma cells and HFF-1 immortalized human fibroblasts, over a period of 14 days.

[4] = Metabolic stability in homogenates of mouse liver; format: in vitro ADME; details: homogenates of mouse liver in PBS 1:2 (w/v), ex vivo; for half-life: mouse, mouse liver homogenate, read-out: half-life (hepatic metabolic stability) (converted)
Method: Metabolic stabilities of 1, 6a, 6d, 6g, and 6l were measured in mouse plasma and homogenates of mouse liver in PBS [1:2 (w/v)].

[5] = tested on: LN229 human glioblastoma cells; assay: Clonogenicity assay LN229; format: cell-based; details: LN-229, 336 h, 14 days
Text: as §1

[6] = Aqueous solubility by laser nephelometry at pH 3.0, 5.0, 7.4; format: physicochemical; details: pH 5.0 and pH 3.0 versus pH 7.4
[7] = tested on: HIF-1 transcriptional activity; assay: HIF-inducible luciferase reporter assay in LN229-V6R cells under hypoxia; format: cell-based, human
Method: (§2) Results are plotted as percent of luciferase activity found in extracts of untreated cells used as controls. (A) Luciferase activity in extracts of LN229-V6R cells, which contain a HIF-inducible luciferase reporter gene. The cells were grown under hypoxia to activate HIF. (B) Luciferase activity in extracts of LN229-Lux cells, which contain a constitutively expressed luciferase reporter gene. Results shown are from cells grown under normoxia; similar results were obtained under hypoxia.
(§3) The effects of the 12 heteroarylsulfonamides on HIF transcriptional activity under hypoxia were measured by determining the luciferase activity present in LN229-V6R cells, which contain a stably integrated hypoxia/HIF inducible luciferase reporter gene. As a control for the absence of inhibition on luciferase enzyme per se, we also tested 1 and five heteroarylsulfonamides in LN229-Lux cells that contain a constitutive luciferase reporter gene driven by a retroviral LTR promoter. An Hsp90 inhibitor, 17-DMAG, and 1 were used as positive controls. […] The heteroarylsulfonamides decreased HIF-1 activity in a dose-dependent fashion with IC50 values below (6a, 6b, 6d-6f, 6h, 6i, 6l) or close to 5 μM (6c, 6g, 6j, 6k) (FIG. 2).

[8] = tested on: LN229-Lux cells (constitutive luciferase reporter gene); assay: Constitutive luciferase reporter control assay in LN229-Lux cells; format: cell-based, human; details: control for luciferase inhibition
Method: as §2, §3

log P7.4 [1]: 4.1
SMILES: CC(C)CN(Cc1ccc2c(c1)C=CC(C)(C)O2)S(=O)(=O)c1ccccn1 [Compound 6c, N-[(2,2-Dimethyl-2H-chromen-6-yl)methyl]-N-(2-methylpropyl)pyridine-2-sulfonamide]

log P7.4 [1]: 4.4
SMILES: CC(C)CN(Cc1ccc2c(c1)C=CC(C)(C)O2)S(=O)(=O)c1nccs1 [Compound 6k, N-[(2,2-Dimethyl-2H-chromen-6-yl)methyl]-N-(2-methylpropyl)-1,3-thiazole-2-sulfonamide]

aqueous solubility relative to 1 [2]: 9000 times | half-life (hepatic metabolic stability) [4]: 15 h | half-life [4]: 13 to 20 h | IC50 ([5]; LN229, hypoxia): > 100 µM | IC50 ([5]; LN229, normoxia): 69 µM
SMILES: COc1cc(CN(C(C)C)S(=O)(=O)c2ccccn2)cc2c1OC(C)(C)C=C2 [Compound 6g]
concentration from which HIF-1α levels decreased dose-dependently (HIF-1α): 12 µM | IC50 ([3]; HFF-1, hypoxia): > 100 µM | IC50 ([3]; HFF-1, normoxia): 55 µM

aqueous solubility (n = 3) [2]: 1 ± 0.1 µM (≈ 0.372 µg/mL) | aqueous solubility relative to 1 [2]: 100 times | solubility [2]: 0.3 µg/mL (≈ 0.805 µM) | effect of low pH on aqueous solubility [6]: 50-60 times | half-life (hepatic metabolic stability) [4]: 20 h | half-life [4]: 13 to 20 h | log P7.4 [1]: 2.0 | IC50 ([7]; Homo sapiens, LN229-V6R cells): < 5 µM | IC50 ([5]; LN229, hypoxia): 134 µM | IC50 ([5]; LN229, normoxia): 82 µM
SMILES: CC(C)N(Cc1ccc2c(c1)C=CC(C)(C)O2)S(=O)(=O)c1ccccn1 [Compound 6a, N-[(2,2-Dimethyl-2H-chromen-6-yl)methyl]-N-(propan-2-yl)pyridine-2-sulfonamide]
effect on HIF-1α protein levels (HIF-1α): no effect on HIF-1α levels at all concentrations tested, except for a slight reduction at the highest concentration (100 μM) | IC50 ([3]; HFF-1, hypoxia): 93 µM | IC50 ([3]; HFF-1, normoxia): 62 µM | inhibition of HIF-1 transcriptional activity (HRE-reporter) at 10 μM ([7]; 10 μM, LN229-V6R cells, 1 day): inhibited completely

log P7.4 [1]: 3.0
SMILES: CC1(C)C=Cc2cc(CN(C3CCC3)S(=O)(=O)c3ccccn3)ccc2O1 [Compound 6e, N-(Cyclobutyl)-N-[(2,2-dimethyl-2H-chromen-6-yl)methyl]pyridine-2-sulfonamide]

log P7.4 [1]: 3.1
SMILES: CC(C)CN(Cc1ccc2c(c1)C=CC(C)(C)O2)S(=O)(=O)c1nccn1C [Compound 6j, N-[(2,2-Dimethyl-2H-chromen-6-yl)methyl]-N-(2-methylpropyl)-1-methyl-1H-imidazole-2-sulfonamide]

log P7.4 [1]: 3.6 | IC50 ([7]; Homo sapiens, LN229-V6R cells): < 5 µM
SMILES: CC(C)CN(Cc1ccc2c(c1)C=CC(C)(C)O2)S(=O)(=O)c1ccncc1 [Compound 6i, N-[(2,2-Dimethyl-2H-chromen-6-yl)methyl]-N-(2-methylpropyl)pyridine-4-sulfonamide]

log P7.4 [1]: 3.8
SMILES: CC1(C)C=Cc2cc(CN(C3CCCC3)S(=O)(=O)c3ccccn3)ccc2O1 [Compound 6f, N-(Cyclopentyl)-N-[(2,2-dimethyl-2H-chromen-6-yl)methyl]pyridine-2-sulfonamide]

aqueous solubility (n = 3) [2]: 0.2 ± 0.07 µM (≈ 0.0769 µg/mL) | aqueous solubility relative to 1 [2]: 20 times | solubility [2]: 0.1 µg/mL (≈ 0.26 µM) | half-life (hepatic metabolic stability) [4]: 13 h | half-life [4]: 13 to 20 h | log P7.4 [1]: 3.1
SMILES: CC1(C)C=Cc2cc(CN(CC3CC3)S(=O)(=O)c3ccccn3)ccc2O1 [Compound 6d, N-(Cyclopropylmethyl)-N-[(2,2-dimethyl-2H-chromen-6-yl)methyl]pyridine-2-sulfonamide]

SMILES: CO[C@H]1/C=C\C=C(/C)C(=O)NC2=CC(=O)C(NCCN(C)C)=C(C[C@@H](C)C[C@H](OC)[C@H](O)[C@@H](C)/C=C(\C)[C@@H]1OC(N)=O)C2=O [17-DMAG, reference compound]
effect on luciferase activity in LN229-Lux cells [8]: inhibited | effect on luciferase activity in LN229-V6R cells [7]: inhibited

SMILES: COc1ccc(S(=O)(=O)N(Cc2ccc3c(c2)C=CC(C)(C)O3)c2ccccc2)cc1OC [Compound 1, 3,4-Dimethoxy-N-[(2,2-dimethyl-2H-chromene-6-yl)methyl]-N-phenylbenzenesulfonamide, reference compound]
effect on luciferase activity in LN229-Lux cells [8]: reduced luciferase activity only in LN229-V6R cells | effect on HIF-1α protein levels (HIF-1α): does not antagonize hypoxia-induced HIF-1α expression | aqueous solubility (n = 3) [2]: 0.009 µM (≈ 0.00419 µg/mL) | solubility [2]: 0.003 µg/mL (≈ 0.00644 µM) | effect of low pH on aqueous solubility [6]: pH did not affect aqueous solubility | half-life [4]: 11 h | log P7.4 [1]: 3.7 | activity at 2.5 µM ([7]; Homo sapiens, 2.5 μM, LN229-V6R cells, read-out: remaining HIF-1 activity at 2.5 μM, % of control): 18%

log P7.4 [1]: 3.0 | IC50 ([7]; Homo sapiens, LN229-V6R cells): < 5 µM
SMILES: CC1(C)C=Cc2cc(CN(C3CC3)S(=O)(=O)c3ccccn3)ccc2O1 [Compound 6b, N-Cyclopropyl-N-[(2,2-dimethyl-2H-chromen-6-yl)methyl]pyridine-2-sulfonamide]
